Laboratory results taken from ChEMBL document CHEMBL1157160, “Antioxidant and cytotoxic activities of canadine: biological effects and structural aspects” (Bioorg Med Chem, 2008).
≈ marks a conversion by molar mass, not a printed value.

Experiments:
HeLa [1] = assay: Cytotoxicity against human HeLa cells after 24 hrs by MTT assay; type: functional, cell-based
HepG2 [2] = assay: Cytotoxicity against human HepG2 cells after 24 hrs by MTT assay; type: functional, cell-based
Hepatocyte [3] = assay: Cytotoxicity against Sprague-Dawley rat primary hepatocytes after 24 hrs by MTT assay; type: cell-based
Hepatocyte [4] = assay: Antioxidant effect in Sprague-Dawley rat primary hepatocytes assessed as decrease in tert-butyl hydroperoxide-induced malondialdehyde accumulation administered 50 ug/ml for 7 hrs followed by combined exposure of tert-butyl hydroperoxide and drug for 12 hrs; type: functional; parameters: scale not given: the % may be the effect or the level left
Hepatocyte [5] = assay: Antioxidant effect in Sprague-Dawley rat primary hepatocytes assessed as prevention of tert-butyl hydroperoxide-induced reduction in glutathione content administered 50 ug/ml for 7 hrs followed by combined exposure of tert-butyl hydroperoxide and drug for 12 hrs; type: functional; parameters: scale not given: the % may be the effect or the level left
Hepatocyte [6] = assay: Antioxidant effect in Sprague-Dawley rat primary hepatocytes assessed as decrease in tert-butyl hydroperoxide-induced malondialdehyde accumulation administered 100 ug/ml for 7 hrs followed by combined exposure of tert-butyl hydroperoxide and drug for 12 hrs; type: functional; parameters: scale not given: the % may be the effect or the level left
Hepatocyte [7] = assay: Antioxidant effect in Sprague-Dawley rat primary hepatocytes assessed as prevention of tert-butyl hydroperoxide-induced reduction in glutathione content administered 100 ug/ml for 7 hrs followed by combined exposure of tert-butyl hydroperoxide and drug for 12 hrs; type: functional; parameters: scale not given: the % may be the effect or the level left
Hepatocyte [8] = assay: Cytotoxicity against rat primary hepatocytes at 300 ug/ml after 24 hrs by MTT assay; type: cell-based
HepG2 [9] = assay: Cytotoxicity against human HepG2 cells at 300 ug/ml after 24 hrs by MTT assay; type: functional, cell-based
HeLa [10] = assay: Cytotoxicity against human HeLa cells at 300 ug/ml after 24 hrs by MTT assay; type: functional, cell-based
[11] = Homo sapiens, HeLa, 24 h, read-out: IC50
[12] = Homo sapiens, HepG2, 24 h, read-out: IC50

Q: Which results are given for c1ccc2c(c1)C[C@H]1NCCc3cc4c(c-2c31)OCO4 [ANONAINE]?
A: IC50 (HeLa [1]; [11]): 24.8 µg/mL (≈ 93.5 µM); IC50 (HepG2 [2]; [12]): 33.5 µg/mL (≈ 126 µM); IC50 (Hepatocyte [3]): 70.3 µg/mL (≈ 265 µM)

Q: How did the IC50 (HeLa [1]; [11]) turn out when COc1cc2c3cc1Oc1c(O)c(OC)cc4c1[C@H](Cc1ccc(OC)c(c1)-c1cc(ccc1O)C[C@H]3N(C)CC2)N(C)CC4 [ANTIOQUINE] was run?
A: Its IC50 is 548 µg/mL (≈ 901 µM).

Q: And the IC50 (HepG2 [2]; [12])?
A: Its IC50 is 460 µg/mL (≈ 756 µM).

Q: What about the IC50 (Hepatocyte [3]) of the same molecule?
A: Its IC50 is 4.06 µg/mL (≈ 6.67 µM).

Q: With COc1ccc2cc3[n+](cc2c1OC)CCc1cc2c(cc1-3)OCO2.[Cl-] [BERBERINE CHLORIDE] as the molecule, how does the IC50 (HeLa [1]; hela) read?
A: Its IC50 is 138 µg/mL.

Q: And the IC50 (HepG2 [2]; hepg2)?
A: The IC50 was 146 µg/mL.

Q: And the IC50 (Hepatocyte [3])?
A: The IC50 was 26.5 µg/mL.

Q: What does the source list for COc1ccc2c(c1OC)CN1CCc3cc4c(cc3[C@@H]1C2)OCO4 [CANADINE]?
A: Activity (Hepatocyte [4]): >80%; Activity (Hepatocyte [5]): >95%; Activity (Hepatocyte [6]): >80%; Activity (Hepatocyte [7]): >95%; Activity (Hepatocyte [8]): Non-toxic; Activity (HepG2 [9]): Not toxic; Activity (HeLa [10]): Not toxic
